Experimental data: patent US20180353512A1, “COMBINATION THERAPIES FOR TREATING B-CELL MALIGNANCIES” (GILEAD SCIENCES, INC., priority 2015, published 2018)
Read-outs that look alike come from different tables or passages of the source.

Assays:
p-S6 (S235/236) = experiment: Western Blot of TMD8 xenograft tumor samples; assay type: in vivo, mice; conditions: single agent; PI3Kδ inhibitor 5 mg/kg, Compound B 10 mg/kg
Method: (§1) Tumor samples obtained from the study were lysed and Western Blot was performed on the samples to determine the level of BTK and S6 phosphorylation, a downstream effector of PI3K signaling. Western Blots were performed according to the Western Blot procedure described in Example 3B above, using antibodies against p-S6 (S235/236), p-BTK (Y223), BTK and actin. Protein levels were determined using Peggy Sue (ProteinSimple) automated Western Blot system. Normalized AUC were determined for each of the treatment groups: p-BTK (Y223) was normalized to total BTK protein, and p-S6 (S235/236) was normalized to actin.

p-BTK (Y223) = experiment: Western Blot of TMD8 xenograft tumor samples; assay type: in vivo, mice; conditions: Compound B 10 mg/kg; normalized to total BTK
Method: as §1

TMD8 tumor xenograft = TMD8 tumor xenograft model, tumor volume; assay type: in vivo, mice; design: tumor growth: dose or concentration left out as unconfirmed; conditions: oral gavage
Method: A TMD8 tumor xenograft model was generated by introducing cultured TMD8 cells into irradiated mice. All animal experiments were performed in accordance with the Institutional Animal Care and Use Committee (IACUC) protocol. Male CB17-SCID mice were treated with 1.44 Gy whole body irradiation using a ^60Co radiation source, and seventy-four hours later, 1×10^7 TMD8 cells were inoculated subcutaneously into the right flank. When tumors reached a mean volume of 200 mm^3, mice were randomly assigned to groups (n=13). […] All test compounds were formulated in 5% (v/v) N-Methyl-2-pyrrolidone (NMP)/55% (v/v) Polyethylene Glycol 300 (PEG) 300/40% (v/v) Water/1% (w/v) Vitamin E D-α-Tocopherol Polyethylene Glycol 1000 Succinate (TPGS). Tumor volume was calculated using the following formula: (length×width^2)/2, where length is the longest diameter across the tumor and width is the corresponding perpendicular diameter. Tumor growth inhibition rate was calculated using the following formula: 1−(tumor sizeend of compound treatment−tumor sizebeginning of compound treatment/tumor sizeend of vehicle treatment−tumor sizebeginning of vehicle treatment)×100.
The Analysis of Variance model for repeated measure was used to determine the treatment effect on tumor growth. The model fitted on tumor volume included factors of treatment, time, and their interaction. […]

FSCCL^R = experiment: CellTiter Glo viability assay after 96 h; assay type: cell-based; conditions: FIG. 16, read-out: EC50, cell viability
Method: (§2) Idelalisib resistance was established by continuous passaging of a clonal isolate of WSU-FSCCL in the presence of 1 μM idelalisib; clonal isolates from a passage-matched line (FSCCL^S) and idelalisib-resistant line (FSCCL^R) were generated through 2 rounds of single-cell-limiting dilution. Growth inhibition to idelalisib or other inhibitors was performed after 96 h using CellTiter Glo viability assay. Characterization of mutations and gene expression were identified by whole exome sequencing and RNA-Seq, respectively. Whole cell lysates were analyzed by western blots.

[1] = test system: FSCCL^R clone 3 (PI3KCA P539R); experiment: CellTiter Glo viability assay after 96 h; assay type: cell-based; conditions: single agent, read-out: EC50
Method: as §2

FSCCL^S = experiment: CellTiter Glo viability assay after 96 h; assay type: cell-based
Method: as §2

[2] = test system: FSCCL^R clone 1 (PI3KCA E970K); experiment: CellTiter Glo viability assay after 96 h; assay type: cell-based; conditions: single agent, read-out: EC50
Method: as §2

FSCCL (WSU-FSCCL) = experiment: CellTiter Glo viability assay after 96 h; assay type: cell-based; conditions: read-out: EC50, cell viability
Method: as §2

FSCCL^R SFK^HIGH = experiment: CellTiter Glo viability assay after 96 h; assay type: cell-based
Method: as §2

[3] = test system: FSCCL^R clone 2 (PI3KCA N345K); experiment: CellTiter Glo viability assay after 96 h; assay type: cell-based; conditions: single agent, read-out: EC50
Method: as §2

TMD8 = experiment: CellTiter-Glo viability assay at 96 h (Example 5); assay type: cell-based; conditions: Homo sapiens
Method: Growth inhibition to Idelalisib or other inhibitors was assessed using CellTiter-Glo viability assay at 96 h. […] Cell lines were analyzed by whole exome sequencing, RNASeq, and phosphoproteomics. Protein expression was measured using Simple Western and SDS/PAGE and western blot. Caspase 3/7 was measured using Caspase-Glo 3/7 assay; apoptosis was measured with Annexin V assay and propidium iodide by flow cytometry.
Cell viability EC50 was determined using a sigmoidal dose-response (variable slope) curve generated from quadruplicate samples. Statistical significance was determined using the student's t-test for cell viability and two-tailed paired t-test for apoptosis experiments in Prism (GraphPad).

c-Myc = c-Myc RNAseq and western blot in ABC-DLBCL cell lines; assay type: cell-based
Method: Gene expression levels and mutations were determined by […]. The following bioinformatics platforms were used to analyze the sequence reads: DNA sequencing reads were aligned to human reference genome by BWA. Single nucleotide variants were identified using VarScan and were annotated using SnpEff Putative somatic mutations were prioritized by mutant allele frequency, recurrence and predicted functional impact. RNA sequencing reads were aligned to human reference genome using STAR and RNA abundance was quantified using RSEM. The Bioconductor package edgeR was used to normalize sequence count and limma was used to conduct differential gene expression analysis.
Protein expression was measured using Simple Western, SDS/PAGE and Western Blot or Peggy Sue (ProteinSimple), generally according to the procedures described above in Example 3B. Primary antibodies used to test phosphorylated protein or total protein levels include antibodies against: p-AKT (S473), p-AKT (T308), AKT, p-ERK (T202/Y204), p-S6 (S235/236), S6, p-PDK1 (S241), p-PLCγ2 (Y1217), p-GSK3β (S9), p-STAT3 (Y705), p-IκBα (S32), IκBα, p-SYK (Y525/526), p-BTK (Y223), PI3Kγ, PTEN, and actin.

| Compound | effect on p-S6 in tumors (p-S6 (S235/236)) | reduction of p-BTK in tumors (p-BTK (Y223)) [%] | tumor growth inhibition (TMD8 tumor xenograft; 10 mg/kg BID, P<0.05) [%] | tumor growth (TMD8 tumor xenograft) | EC50 (FSCCL^R) [nM] | EC50 [1] [nM] | EC50 (FSCCL^S; FIG. 16, read-out: EC50, cell viability) [nM] | EC50 (FSCCL^S; PI3KCA WT, Table 13, single agent, read-out: EC50) [nM] | EC50 (FSCCL^S; Table 14, single agent, read-out: EC50) [nM] | EC50 (FSCCL^S; Table 15, single agent, read-out: EC50) [nM] | EC50 [2] [nM] | EC50 (FSCCL (WSU-FSCCL)) [nM] | EC50 (FSCCL^R SFK^HIGH; read-out: EC50 IDELA (+Dasatinib 10 nM)) [nM] | EC50 (FSCCL^R SFK^HIGH; read-out: EC50 IDELA (+ENTO 680 nM)) [nM] | EC50 [3] [nM] | EC50 (TMD8) [nM] | c-Myc mRNA (RNAseq) (c-Myc; 500 nM idelalisib, sensitive cell lines (TMD8 and Ri-1)) | c-Myc (western blot) (c-Myc; TMD8^S) |
| --- | --- | --- | --- | --- | --- | --- | --- | --- | --- | --- | --- | --- | --- | --- | --- | --- | --- | --- |
| CC#CC(=O)N1CC[C@@H](n2c(=O)n(-c3ccc(Oc4ccccc4)cc3)c3c(N)ncnc32)C1 [Compound B, 6-amino-9-[(3R)-1-(2-butynoyl)-3-pyrrolidinyl]-7-(4-phenoxyphenyl)-7,9-dihydro-8H-purin-8-one] | did not have an effect | 35 | 75 | did not inhibit tumor growth | – | – | – | – | – | – | – | – | – | – | – | – | – | – |
| CCC(Nc1ncnc2[nH]cnc12)c1nc2cccc(F)c2c(=O)n1-c1ccccc1 (stereo not drawn) [Idelalisib, 2-(1-((9H-Purin-6-yl)amino)propyl)-5-fluoro-3-phenylquinazolin-4(3H)-one] | – | – | – | – | > 10000 | > 3000 | 100 | 110 | 213 | 213 | > 3000 | 140 | 1880 | 2270 | > 3000 | 42 | c-Myc mRNA downregulation | inhibited |
